Laboratory results: ChEMBL document CHEMBL4732267, “Novel Substituted Exomethylene-oxindoles as HPK1 Inhibitors” (ACS Med Chem Lett, 2021)
pIC50: −log10 of the molar value.

Target: Mitogen-activated protein kinase kinase kinase kinase 1 (Homo sapiens, UniProt Q92918)
Test: Inhibition of recombinant human HPK1 expressed in baculovirus infected insect cells using SRKS1 peptide as substrate incubated for 15 mins followed by substrate addition and measured after 3 hrs by TR-FRET assay

Mitogen-activated protein kinase kinase kinase kinase 1, sequence (Q92918 whole entry): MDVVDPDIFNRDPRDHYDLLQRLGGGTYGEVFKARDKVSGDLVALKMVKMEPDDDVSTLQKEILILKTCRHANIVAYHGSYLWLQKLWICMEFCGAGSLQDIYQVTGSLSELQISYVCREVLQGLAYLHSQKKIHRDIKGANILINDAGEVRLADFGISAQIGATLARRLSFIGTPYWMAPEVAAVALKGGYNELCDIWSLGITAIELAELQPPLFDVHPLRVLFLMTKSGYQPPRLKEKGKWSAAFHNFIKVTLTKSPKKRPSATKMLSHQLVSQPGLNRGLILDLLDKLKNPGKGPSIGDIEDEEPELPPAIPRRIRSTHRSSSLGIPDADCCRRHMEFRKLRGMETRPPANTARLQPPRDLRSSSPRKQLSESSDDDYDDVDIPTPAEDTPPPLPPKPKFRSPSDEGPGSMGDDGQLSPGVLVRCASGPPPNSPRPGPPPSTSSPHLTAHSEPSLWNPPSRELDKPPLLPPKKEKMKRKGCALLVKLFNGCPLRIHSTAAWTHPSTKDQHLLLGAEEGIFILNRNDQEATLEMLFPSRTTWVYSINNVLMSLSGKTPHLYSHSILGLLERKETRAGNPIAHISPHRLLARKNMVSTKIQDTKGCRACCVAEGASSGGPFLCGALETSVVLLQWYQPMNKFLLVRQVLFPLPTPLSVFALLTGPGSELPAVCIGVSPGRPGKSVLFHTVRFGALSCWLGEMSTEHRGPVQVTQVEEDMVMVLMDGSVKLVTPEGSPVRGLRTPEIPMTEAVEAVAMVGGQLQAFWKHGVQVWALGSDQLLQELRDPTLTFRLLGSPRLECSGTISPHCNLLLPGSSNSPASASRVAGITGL

pIC50: 10.30
Structure (SMILES): Cc1c(-c2cc(F)c3c(c2)/C(=C/c2ccc(C4CC4)[nH]2)C(=O)N3)cnc2c1NCCO2
